Patent publication US6569878B1, “Substituted 4-amino-thiazol-2-yl compounds as cyclin-dependent kinase inhibitors” (Agouron Pharmaceuticals Inc., priority 1997, dated 2003)
Structures can show the parent of a compound that is named as a salt.

Tests used:
[1] = target: T1, complex of human CDK4 and cyclin D3 (Homo sapiens, UniProt P11802); assay: Inhibition of CDK4/cyclin D retinoblastoma kinase activity (D-type cyclin is D3); assay type: biochemical; settings: superscript a: D-type cyclin is D3; apparent Ki; read-out: Ki CDK 4/D
T1 construct: made in house; host or cells: insect cells, co-infected with baculovirus
How it was run: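 Apparent Ki derived by fitting background-corrected activity to competitive (or, for tight binders, competitive tight-binding) equations with measured ATP Km. Rb phosphorylation by radiolabelled ATP was measured at 30°C, 20 min standard or 60 min at 5 nM complex for tight binders, via nitrocellulose capture and phosphorimager.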

[2] = target: T2, CDK2/cyclin A (Homo sapiens, UniProt P24941); assay: Inhibition of CDK2/cyclin A retinoblastoma kinase activity; assay type: biochemical; settings: read-out: Ki CDK 2/A
T2 construct: made in house; host or cells: CDK2: insect cells (baculovirus); cyclin A: E. coli, then limited proteolysis
How it was run: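 Baculovirus-expressed CDK2 with excess proteolyzed cyclin A (or purified complex), 150 nM or 5 nM, phosphorylating an Rb fragment with 25 μM [32/33P]ATP, pH 7.4, 30° C, 20 min. Filter-captured radioactivity by phosphorimager; apparent Ki from fits to competitive or tight-binding competitive inhibition using measured ATP Km.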

[3] = target: T3, human CDK1 (cdc2) and cyclin B (Homo sapiens, UniProt P06493); assay: Inhibition of CDK1(cdc2)/cyclin B histone H1 kinase activity; assay type: biochemical; settings: read-out: Ki CDK 1/B
T3 construct: purchased New England Biolabs (Beverly Mass.)
How it was run: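 CDK1/cyclin B (commercial, or CDK1/GST-cyclin B1 from co-infected insect cells) phosphorylated histone H1 with 25 μM [32/33P]ATP at pH 7.4, 30° C for 20 min, 2% DMSO. Product captured on phosphocellulose and read by phosphorimager; apparent Ki from competitive or tight-binding fits, with Km for ATP determined.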

[4] = test system: HCT116; assay: Inhibition of cell growth, MTT assay, HCT116; assay type: cell-based, human; settings: Homo sapiens, HCT-116
How it was run: (§1)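 Cells rested 4 h after plating, then exposed to graded compound concentrations in 0.5% (v/v) DMSO for four to six days (cell-type dependent) at 37° C, 5% CO2. Viability was read by MTT (0.2 mg/mL final, 4 h at 37° C), with DMSO-solubilized formazan measured at 540 nm.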

[5] = test system: U2-OS; assay: Inhibition of cell growth, MTT assay, U2-OS; assay type: cell-based; settings: Homo sapiens, U2OS
How it was run: as §1

[6] = test system: Saos-2; assay: Inhibition of cell growth, MTT assay, Saos-2; assay type: cell-based; settings: Homo sapiens; Saos-2, MTT assay
How it was run: as §1

[7] = test system: COLO-205; assay: Inhibition of cell growth, MTT assay, COLO-205; assay type: cell-based; settings: Homo sapiens; COLO-205, MTT assay
Description: (§2) The water-insoluble purple formazan product was then detected spectrophotometrically. […] Plates were incubated for four hours before addition of inhibitor compounds. Different concentrations of inhibitor compounds were added in 0.5% (v/v) dimethylsulfoxide (15 μL/well), and cells were incubated at 37° C. (5% CO2) for four to six days (depending on cell type). At the end of the incubation, MTT was added to a final concentration of 0.2 mg/mL, and cells were incubated for 4 hours more at 37° C. After centrifugation of the plates and removal of medium, the absorbance of the formazan (solubilized in dimethylsulfoxide) was measured at 540 nm.

[8] = test system: M14 melanoma; assay: Inhibition of cell growth, MTT assay, M14 melanoma; assay type: cell-based; settings: Homo sapiens
Description: as §2

[9] = test system: RXF-393; assay: Inhibition of cell growth, MTT assay, RXF-393; assay type: cell-based; settings: Homo sapiens; RXF-393, MTT assay
Description: as §2

[10] = test system: MCF-7; assay: Inhibition of cell growth, MTT assay, MCF-7; assay type: cell-based; settings: MCF-7, MTT assay; for IC50 / IC90: Homo sapiens, MCF7; for % inhibition of growth in parentheses after >25: concentration not given
Description: as §2

[11] = test system: MDA-MB-468; assay: Inhibition of cell growth, MTT assay, MDA-MB-468; assay type: cell-based; settings: Homo sapiens; MDA-MB-468, MTT assay
Description: as §2

[12] = test system: phosphorylation of the retinoblastoma protein (pRb) in HCT-116 cells; assay: pRb immunoblotting (anti-Rb antibody); assay type: cell-based, human; settings: five micromolar of each compound for 12 hours, western blot
Description: (§3) The ability of compounds to inhibit phosphorylation of the retinoblastoma protein (pRb) was assessed by western blot analysis. An anti-Rb antibody was used to measure the conversion of hyper-phosphorylated pRb to hypo-phosphorylated pRb.
(§4) Human colon tumor cells (HCT-116 cells; 5×10^6) were plated on […] dishes and allowed to grow overnight. Five micromolar of each compound was added for 12 hours. The cells were then collected and centrifuged. The cell pellets were lysed by the addition of 100 μL lysis buffer (50 mM HEPES (pH 7.0), 250 mM NaCl, 5 mM ethylenediaminetetraacetic acid, 0.1% Nonidet P-40, 1 mM dithiothreitol, 2 mM sodium pyrophosphate, 1 mM sodium orthovanadate, 1 μg/ml aprotonin, 1 μg/ml leupeptin, 50 μg/ml phenylmethylsulfonyl fluoride). Forty micrograms of protein were separated by sodium dodecyl sulfate-polyacrylamide gel electrophoresis (SDS-PAGE) on a 6% gel. The proteins were transferred to nitrocellulose and blocked with 5% blocking buffer in Tris-buffered saline overnight. The anti-Rb antibody (Pharmingen), the anti-phospho-Rb (Ser 780) antibody (MBL), and secondary antibody were incubated for 1 hour at room temperature followed by three wash steps in 0.01% Tween-20 in Tris-buffered saline. The Rb protein was detected using chemiluminescence according to the manufacturer (Amersham).

[13] = test system: pRb phosphorylation at serine 780 in HCT-116 cells; assay: pRb immunoblotting (anti-phospho-Rb (ser780) antibody); assay type: cell-based, human; settings: five micromolar of each compound for 12 hours, western blot, anti-phospho-Rb (Ser 780) antibody
Description: as §3, §4

T3 sequence (P06493 whole entry): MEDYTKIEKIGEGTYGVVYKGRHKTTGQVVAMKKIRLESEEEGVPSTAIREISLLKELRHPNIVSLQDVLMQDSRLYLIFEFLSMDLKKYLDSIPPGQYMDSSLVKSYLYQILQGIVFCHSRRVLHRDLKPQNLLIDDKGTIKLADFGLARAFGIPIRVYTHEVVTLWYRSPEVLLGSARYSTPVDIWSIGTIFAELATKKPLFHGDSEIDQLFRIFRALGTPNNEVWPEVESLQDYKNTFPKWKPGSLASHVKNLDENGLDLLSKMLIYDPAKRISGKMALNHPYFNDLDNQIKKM
T3 sequence (P14635 whole entry partner): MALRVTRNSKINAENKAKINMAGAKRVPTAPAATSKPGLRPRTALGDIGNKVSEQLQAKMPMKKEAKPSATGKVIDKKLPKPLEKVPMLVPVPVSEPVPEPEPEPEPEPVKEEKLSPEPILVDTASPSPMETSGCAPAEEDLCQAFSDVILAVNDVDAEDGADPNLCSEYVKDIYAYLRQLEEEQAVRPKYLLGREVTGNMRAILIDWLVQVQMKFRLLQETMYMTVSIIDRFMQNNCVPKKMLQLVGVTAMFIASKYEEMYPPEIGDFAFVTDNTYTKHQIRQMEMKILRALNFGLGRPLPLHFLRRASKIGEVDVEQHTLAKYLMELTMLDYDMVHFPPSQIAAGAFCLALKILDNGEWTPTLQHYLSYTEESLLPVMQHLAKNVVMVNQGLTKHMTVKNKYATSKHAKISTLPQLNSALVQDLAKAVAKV
T1 sequence (P11802 whole entry): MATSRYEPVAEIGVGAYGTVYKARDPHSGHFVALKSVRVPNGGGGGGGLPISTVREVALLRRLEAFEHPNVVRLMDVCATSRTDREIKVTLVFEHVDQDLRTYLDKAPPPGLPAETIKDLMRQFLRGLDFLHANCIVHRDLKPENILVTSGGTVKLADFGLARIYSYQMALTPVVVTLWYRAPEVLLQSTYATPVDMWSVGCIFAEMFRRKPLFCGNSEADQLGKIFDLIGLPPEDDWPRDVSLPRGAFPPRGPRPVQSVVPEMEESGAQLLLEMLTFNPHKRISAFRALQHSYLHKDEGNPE
T1 sequence (P30281 whole entry partner): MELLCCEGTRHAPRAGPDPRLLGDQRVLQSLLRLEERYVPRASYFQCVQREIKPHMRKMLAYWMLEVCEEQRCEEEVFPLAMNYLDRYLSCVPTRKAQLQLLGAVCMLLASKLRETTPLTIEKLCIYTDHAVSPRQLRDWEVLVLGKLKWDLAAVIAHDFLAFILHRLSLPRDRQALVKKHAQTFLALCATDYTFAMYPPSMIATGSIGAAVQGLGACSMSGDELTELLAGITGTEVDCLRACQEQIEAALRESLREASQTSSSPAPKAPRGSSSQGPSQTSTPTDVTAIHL

Structure (SMILES)	Ki [1] [nM]	Ki [2] [nM]	Ki [3] [nM]	IC90 [4] [nM]	IC50 [5] [nM]	IC90 [5] [µM]	IC50 [6] [nM]	IC90 [6] [nM]	IC50 [7] [nM]	IC90 [7] [nM]	IC50 [8] [nM]	IC90 [8] [µM]	IC50 [9] [nM]	IC90 [9] [nM]	IC50 [10] [nM]	IC90 [10] [µM]	IC50 [11] [nM]	Inhibits pRb phosphorylation [12]	Inhibits pRb (ser 780) phosphorylation [13]	IC50 [4] [nM]	further results
Cc1ccsc1C(=O)c1sc(Nc2ccc(S(N)(=O)=O)cc2)nc1N [C(48), 4-[4-Amino-5-(3-methyl-thiophene-2-carbonyl)-thiazol-2-ylamino]-benzenesulfonamide]	14	11.1	15	700	1000	1.5	420	750	290	600	600	1.8	800	1600	2600	> 25	260	+	+		% inhibition of growth in parentheses after >25 [10]: (82%); IC90 [11]: 600 nM
Cc1cc(C(=O)c2sc(Nc3ccc(S(N)(=O)=O)cc3)nc2N)c(C)s1 [C(50), 4-[4-Amino-5-(2,5-dimethyl-thiophene-3-carbonyl)-thiazol-2-ylamino]-benzenesulfonamide]	25.5	5.6	29	1600	2000	3	1300	2800							3000	> 25	480	+	+	610	% inhibition of growth in parentheses after >25 [10]: (88%); IC90 [11]: 1500 nM
CN1CCN(c2ccc(Nc3nc(N)c(C(=O)c4c(Cl)cc(C(F)(F)F)cc4Cl)s3)cc2)CC1 [C(81)]	12.3	872	1240	20000	7900	12	13000	22000	> 5000		3800	> 5	> 5000		3900	16	4700	+	+	10000	IC90 [11]: 9300 nM
Cc1ccsc1C(=O)c1sc(Nc2ccc(N3CCN(C)CC3)cc2)nc1N [C(87), {4-Amino-2-[4-(4-methyl-piperazin-1-yl)-phenylamino]-thiazol-5-yl}-3-methyl-thiophen-2-yl-methanone]	9	607	826	2900	1800	4	2000	4000	390	1700	1500	4.2	1500	2300				+	+	950	
Cc1cc([N+](=O)[O-])sc1C(=O)c1sc(Nc2ccc(N3CCN(C)CC3)cc2)nc1N [C(94), {4-Amino-2-[4-(4-methyl-piperazin-1-yl)-phenylamino]-thiazol-5-yl}-(3-methyl-5-nitro-thiophen-2-yl)-methanone]	41	1040	1410	3100	3400	6	2200	5000										+	+	1300	
COc1ccc(Nc2nc(N)c(C(=O)c3ccccc3C#N)s2)cc1 [F, 2-[4-Amino-2-(4-methoxy-phenylamino)-thiazole-5-carbonyl]-benzonitrile]	40.7	350	200	2600	1000	20	1000	1600										−	−	1000	
Cc1ccsc1C(=O)c1sc(Nc2ccc(N3CCNCC3)cc2)nc1N [H(1), [4-Amino-2-(4-piperazin-1-yl-phenylamino)-thiazol-5-yl]-(3-methyl-thiophen-2-yl)-methanone Trihydrochloride]	8.2	370	681	1400	850	1.5	730	1400	200	600	2400	9	460	880				+	+	580	
